Counter-ions that a name gives are not always drawn. Where only a bound is given, the exact number is not on record here.

For one series, the target named is T1, hCA IV (Homo sapiens, UniProt P22748).
T1 construct: made in house
As to the kind of experiment: stopped flow CO2 hydrase assay, CA IV. Format: biochemical. To be noted: mean from 3 different assays, errors ±5–10%. On the procedure:
(§1) An Applied Photophysics stopped-flow instrument was used for assaying the CA catalyzed CO2 hydration activity. Phenol red (at a concentration of 0.2 mM) was used as an indicator, working at the absorbance maximum of 557 nm, with 20 mM HEPES (pH 7.5) as buffer, and 20 mM Na2SO4 (for maintaining constant the ionic strength), following the initial rates of the CA-catalyzed CO2 hydration reaction for a period of 10–100 s. The CO2 concentrations ranged from 1.7 to 17 mM for the determination of the kinetic parameters and inhibition constants. For each inhibitor, at least six traces of the initial 5–10% of the reaction were used for determining the initial velocity. The uncatalyzed rates were determined in the same manner and subtracted from the total observed rates. Stock solutions of inhibitor (0.1 mM) were prepared in distilled–deionized water, and dilutions up to 0.01 nM were done thereafter with the assay buffer. Inhibitor and enzyme solutions were preincubated together for 45 min at room temperature prior to assay in order to allow for the formation of the E–I complex. The inhibition constants were obtained by non-linear least-squares methods using PRISM 3 and the Cheng–Prusoff equation, as reported earlier, representing the mean from at least three different determinations. […] All CA isoforms were recombinant ones obtained in-house, as reported earlier.

Another series deals with T2, hCA I (Homo sapiens, UniProt P00915).
T2 construct: made in house
T2 sequence (P00915 whole entry): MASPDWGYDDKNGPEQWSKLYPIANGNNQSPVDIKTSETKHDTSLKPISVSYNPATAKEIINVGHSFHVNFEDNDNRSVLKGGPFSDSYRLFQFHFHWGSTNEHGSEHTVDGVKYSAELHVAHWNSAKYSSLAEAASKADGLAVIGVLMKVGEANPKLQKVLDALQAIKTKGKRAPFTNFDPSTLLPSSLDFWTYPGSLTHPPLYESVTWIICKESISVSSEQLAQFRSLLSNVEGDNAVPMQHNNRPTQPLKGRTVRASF
The experiment in a line: stopped flow CO2 hydrase assay, CA I. Format: biochemical. To be noted: mean from 3 different assays, errors ±5–10%. On the procedure: as §1

For a further series, the target named is T3, hCA XII (Homo sapiens, UniProt O43570).
T3 construct: made in house
T3 sequence (O43570 25-354): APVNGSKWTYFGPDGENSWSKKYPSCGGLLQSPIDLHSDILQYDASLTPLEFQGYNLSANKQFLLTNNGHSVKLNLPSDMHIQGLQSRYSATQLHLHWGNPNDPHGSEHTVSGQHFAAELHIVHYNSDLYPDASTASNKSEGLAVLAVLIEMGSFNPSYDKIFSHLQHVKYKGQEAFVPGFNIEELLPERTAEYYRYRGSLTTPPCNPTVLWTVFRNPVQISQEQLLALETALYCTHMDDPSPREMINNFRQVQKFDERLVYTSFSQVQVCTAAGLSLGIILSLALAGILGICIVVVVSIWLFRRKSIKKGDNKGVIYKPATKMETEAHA
As to the kind of experiment: stopped flow CO2 hydrase assay, CA XII. In kind it is biochemical. The settings on record: for Ki: stopped flow CO2 hydrase assay, mean from 3 different assays, errors ±5–10%; for Selectivity index (SI) CA I/CA XII / Selectivity index (SI) CA II/CA XII: ratio between KI values. On the procedure: as §1

A further series deals with T4, hCA IX (Homo sapiens, UniProt Q16790).
T4 construct: made in house
As to the kind of experiment: stopped flow CO2 hydrase assay, CA IX. In kind it is biochemical. To be noted: for Ki: stopped flow CO2 hydrase assay, mean from 3 different assays, errors ±5–10%; for Selectivity index (SI) CA I/CA IX / Selectivity index (SI) CA II/CA IX: ratio between KI values. On the procedure:
as §1

Another series concerns the target T5, hCA II (Homo sapiens, UniProt P00918).
T5 construct: made in house
As to the kind of experiment: stopped flow CO2 hydrase assay, CA II. The settings on record: mean from 3 different assays, errors ±5–10%. In kind it is biochemical. On the procedure:
as §1

T1 sequence (P22748 19-312): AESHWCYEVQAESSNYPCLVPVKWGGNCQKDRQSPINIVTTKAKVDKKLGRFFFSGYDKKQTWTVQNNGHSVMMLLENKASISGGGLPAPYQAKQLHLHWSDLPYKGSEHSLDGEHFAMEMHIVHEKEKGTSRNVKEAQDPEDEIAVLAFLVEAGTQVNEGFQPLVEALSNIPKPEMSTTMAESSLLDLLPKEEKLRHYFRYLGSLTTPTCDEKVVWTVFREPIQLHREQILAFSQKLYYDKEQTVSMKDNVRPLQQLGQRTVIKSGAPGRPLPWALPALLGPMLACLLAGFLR

For “Sodium 3-(4-((3-(4-sulfamoylphenethyl)ureido)methyl)-1H-1,2,3-triazol-1-yl)butane-1-sulfonate [Compound 47]”, the Ki stood at 473 nM on hCA IV; 82.3 nM on hCA I; 64 nM on hCA XII; 68.1 nM at hCA IX; 41.3 nM at hCA II.

`NS(=O)(=O)c1ccc(-c2cn(CCCS(=O)(=O)[O-])nn2)cc1.[Na+]` [Compound 30, Sodium 3-(4-(4-sulfamoylphenyl)-1H-1,2,3-triazol-1-yl)propane-1-sulfonate] showed a melting point of more than 300 °C. Moreover, the Ki at hCA IV came out at 429 nM. Moreover, at hCA I, the affinity, expressed as Ki, was 83.5 nM. Moreover, on hCA XII, the “Selectivity index (SI) CA I/CA XII” value is reported as 12, the “Selectivity index (SI) CA II/CA XII” value is given as 0.48 and affinity was put at a Ki of 6.7 nM. In addition, on hCA IX, the “Selectivity index (SI) CA I/CA IX” value was found to be 2.3, the “Selectivity index (SI) CA II/CA IX” value amounted to 0.09 and affinity was put at a Ki of 35.9 nM. The molecule further came in with a Ki at hCA II of 3.2 nM.

As to `NS(=O)(=O)c1ccc(OCc2cn(CCCS(=O)(=O)[O-])nn2)cc1.[Na+]` [Compound 31, Sodium 3-(4-((4-sulfamoylphenoxy)methyl)-1H-1,2,3-triazol-1-yl)propane-1-sulfonate], the melting point lay in the range of 290 to 293 °C. This molecule also registered a Ki on hCA IV of 38.3 nM. Besides, on hCA I, the Ki was determined as 82.7 nM. Besides, on hCA XII, the “Selectivity index (SI) CA I/CA XII” value is 1.7, the “Selectivity index (SI) CA II/CA XII” value was found to be 0.02 and the Ki worked out at 47.7 nM. For the same molecule, at hCA IX, the “Selectivity index (SI) CA I/CA IX” value is 1.8, the “Selectivity index (SI) CA II/CA IX” value was determined as 0.02 and the Ki is 44.4 nM. For the same molecule, at hCA II, the Ki came to 0.9 nM.

At hCA IV, “Sodium 3-(4-((4-sulfamoylbenzamido)methyl)-1H-1,2,3-triazol-1-yl)butane-1-sulfonate [Compound 44]” displayed a Ki of 651 nM. This molecule came in with an inhibition constant (Ki) on hCA I of 168 nM. At hCA XII, the “Selectivity index (SI) CA I/CA XII” value was 5.2; the “Selectivity index (SI) CA II/CA XII” value worked out at 0.70; the affinity, expressed as Ki, was 32.2 nM. At hCA IX, the “Selectivity index (SI) CA I/CA IX” value is reported as 3.3, the “Selectivity index (SI) CA II/CA IX” value was 0.44 and the Ki was determined as 50.7 nM. Further, the Ki on hCA II is 22.5 nM.

In turn, `NS(=O)(=O)c1ccc(NC(=S)NCc2cn(CCCS(=O)(=O)[O-])nn2)cc1.[Na+]` [Compound 37, Sodium 3-(4-((3-(4-sulfamoylphenyl)thioureido)methyl)-1H-1,2,3-triazol-1-yl)propane-1-sulfonate] gave a melting point of 230 to 232 °C. Moreover, on hCA IV, the Ki was 78.1 nM. This molecule also showed a Ki at hCA I of 79.9 nM. Further, on hCA XII, the “Selectivity index (SI) CA I/CA XII” value turned out to be 8.5, the “Selectivity index (SI) CA II/CA XII” value was found to be 2.2 and the Ki amounted to 9.4 nM. Also, at hCA IX, the “Selectivity index (SI) CA II/CA IX” value was 0.42 and the Ki was found to be 51.2 nM. At hCA II, this molecule had a Ki of 21.4 nM.

On to “Sodium 3-(4-((4-(3-(4-sulfamoylphenyl)ureido)phenoxy)methyl)-1H-1,2,3-triazol-1-yl)butane-1-sulfonate [Compound 49]”, for which the Ki was 4540 nM at hCA IV; 91.9 nM on hCA I; 53.2 nM at hCA XII; 32.2 nM on hCA IX; 18.8 nM on hCA II.

`NS(=O)(=O)c1ccc(CNC(=O)NCc2cn(CCCS(=O)(=O)[O-])nn2)cc1.[Na+]` [Compound 35, Sodium 3-(4-((3-(4-sulfamoylbenzyl)ureido)methyl)-1H-1,2,3-triazol-1-yl)propane-1-sulfonate]: the melting point was 295 to 297 °C. Further, on hCA IV, the affinity corresponds to a Ki of 50.2 nM. This molecule also returned a Ki on hCA I of 807 nM. Also, at hCA XII, the “Selectivity index (SI) CA I/CA XII” value is reported as 49, the “Selectivity index (SI) CA II/CA XII” value came to 8.4 and the Ki stood at 16.4 nM. In addition, on hCA IX, the “Selectivity index (SI) CA I/CA IX” value was determined as 11; the “Selectivity index (SI) CA II/CA IX” value is listed as 1.9; the affinity, expressed as Ki, was 71.8 nM. The Ki on hCA II came out at 139 nM.

Regarding “Sodium 3-(4-((3-(4-sulfamoylphenyl)thioureido)methyl)-1H-1,2,3-triazol-1-yl)butane-1-sulfonate [Compound 48]”, the Ki on hCA IV stood at 557 nM; on hCA I it was 62.4 nM; at hCA XII, 31.5 nM; at hCA IX, 8.8 nM; on hCA II it was 5.8 nM.

For “Sodium 3-(4-((3-(4-sulfamoylbenzyl)ureido)methyl)-1H-1,2,3-triazol-1-yl)butane-1-sulfonate [Compound 46]”, the Ki at hCA IV amounted to 636 nM; on hCA I, 651 nM; at hCA XII, 31.3 nM; at hCA IX, 133 nM; at hCA II, 332 nM.

Molecule `C#CCNC(=S)Nc1ccc(S(N)(=O)=O)cc1` [Compound 29] yielded a melting point of 235 to 238 °C.

`CCC(=O)Nc1cc(S(N)(=O)=O)ccc1OCc1cn(CCCCS(=O)(=O)O)nn1` (as salt: sodium) [Compound 51] yielded a melting point of more than 300 °C.

With `CC(=O)Nc1cc(S(N)(=O)=O)ccc1OCc1cn(CCCCS(=O)(=O)O)nn1` (as salt: sodium) [Compound 50], the melting point was more than 300 °C.

“Sodium 3-(4-((3-(4-sulfamoylphenyl)ureido)methyl)-1H-1,2,3-triazol-1-yl)butane-1-sulfonate [Compound 45]”: the Ki at hCA IV is 150 nM. Also, affinity on hCA I was put at a Ki of 496 nM. Further, at hCA XII, the “Selectivity index (SI) CA I/CA XII” value was determined as 14, the “Selectivity index (SI) CA II/CA XII” value is 1.2 and the Ki turned out to be 33.6 nM. On hCA IX, the “Selectivity index (SI) CA I/CA IX” value was found to be 1.3, the “Selectivity index (SI) CA II/CA IX” value worked out at 0.11 and the inhibition constant (Ki) was determined as 372 nM. For the same molecule, on hCA II, affinity was put at a Ki of 41.1 nM.

Molecule “Sodium 3-(4-((4-sulfamoylphenoxy)methyl)-1H-1,2,3-triazol-1-yl)butane-1-sulfonate [Compound 42]” gave a Ki on hCA IV of 750 nM. The same molecule came in with a Ki on hCA I of 96.8 nM. On hCA XII, the “Selectivity index (SI) CA I/CA XII” value is on record as 4.1, the “Selectivity index (SI) CA II/CA XII” value stood at 1.2 and affinity was put at a Ki of 23.1 nM. On hCA IX, the “Selectivity index (SI) CA I/CA IX” value stood at 1.6, the “Selectivity index (SI) CA II/CA IX” value is recorded as 0.49 and the Ki turned out to be 60.2 nM. At hCA II, this molecule came in with a Ki of 29.5 nM.

The molecule `NS(=O)(=O)c1ccc(CCNC(=O)NCc2cn(CCCS(=O)(=O)[O-])nn2)cc1.[Na+]` [Compound 36, Sodium 3-(4-((3-(4-sulfamoylphenethyl)ureido)methyl)-1H-1,2,3-triazol-1-yl)propane-1-sulfonate] registered a melting point of 217 to 219 °C. On hCA IV, this molecule displayed a Ki of 870 nM. Besides, the Ki on hCA I came to 76.8 nM. For the same molecule, at hCA XII, the “Selectivity index (SI) CA I/CA XII” value was 8.8; the “Selectivity index (SI) CA II/CA XII” value worked out at 4.9; the affinity, expressed as Ki, was 8.7 nM. Moreover, on hCA IX, the “Selectivity index (SI) CA I/CA IX” value was found to be 0.3, the “Selectivity index (SI) CA II/CA IX” value is on record as 0.15 and the Ki came out at 282 nM. The affinity on hCA II corresponds to a Ki of 43.1 nM.

Consider `CCC(=O)Nc1cc(S(N)(=O)=O)ccc1OCc1cn(CCCS(=O)(=O)[O-])nn1.[Na+]` [Compound 40, Sodium 3-(4-((2-propionamido-4-sulfamoylphenoxy)methyl)-1H-1,2,3-triazol-1-yl)propane-1-sulfonate], for which the melting point is more than 300 °C. Also, at hCA IV, the affinity, expressed as Ki, was 322 nM. At hCA I, this molecule displayed a Ki of 9160 nM. On hCA XII, the “Selectivity index (SI) CA I/CA XII” value is on record as 194, the “Selectivity index (SI) CA II/CA XII” value was 0.14 and the Ki worked out at 47.1 nM. In addition, at hCA IX, the “Selectivity index (SI) CA I/CA IX” value turned out to be 167, the “Selectivity index (SI) CA II/CA IX” value is recorded as 0.12 and the Ki is 54.8 nM. Besides, the affinity on hCA II, expressed as Ki, was 6.6 nM.

As for `NS(=O)(=O)c1ccc(NCc2cn(CCCS(=O)(=O)[O-])nn2)cc1.[Na+]` [Compound 32, Sodium 3-(4-(((4-sulfamoylphenyl)amino)methyl)-1H-1,2,3-triazol-1-yl)propane-1-sulfonate], the melting point was more than 300 °C. The molecule further registered a Ki at hCA IV of 43.1 nM. On hCA I, this molecule gave a Ki of 460 nM. On hCA XII, the “Selectivity index (SI) CA I/CA XII” value came out at 1.1, the “Selectivity index (SI) CA II/CA XII” value was 0.01 and the Ki was 433 nM. At hCA IX, the “Selectivity index (SI) CA I/CA IX” value was determined as 1.0; the “Selectivity index (SI) CA II/CA IX” value was determined as 0.01; the affinity, expressed as Ki, was 459 nM. On hCA II, this molecule returned a Ki of 4.2 nM.

Turning to `CCC(=O)Nc1cc(S(N)(=O)=O)ccc1OCc1cn(CCCCS(=O)(=O)O)nn1` [Compound 51], the Ki on hCA IV was more than 10000 nM; on hCA I it was 3650 nM; at hCA XII, 7.3 nM; on hCA IX, 236 nM; at hCA II it was 39.9 nM.

Turning to `CC(=O)Nc1cc(S(N)(=O)=O)ccc1OCc1cn(CCCCS(=O)(=O)O)nn1` [Compound 50], the Ki at hCA IV was determined as 3560 nM; at hCA I it was 7690 nM; on hCA XII it was 40.6 nM; at hCA IX, 82.5 nM; on hCA II, 263 nM. Also, the “Selectivity index (SI) CA II/CA XII” value on hCA XII was found to be 6.5. For the same molecule, at hCA IX, the “Selectivity index (SI) CA II/CA IX” value is 3.2.
